Ends that are not written are not given here.
Tested on: Male Wistar rats
Assay: Rat spontaneous urination test (metabolism cage), Test Example 6
Type: in vivo
Conditions: aqueous 0.1 mg/mL LNDP solution as drinking for 7 days
Description: It was confirmed from Test Example 2 that LNDP promotes the efferent hypogastric nerve activity, and it was confirmed from Test Example 3 that LNDP inhibits the efferent the pelvic splanchnic nerve activity. Influence on the bladder, which is one of the internal organs dominated by these nerves, was therefore investigated.
Male Wistar rats which are 13 weeks old were received, and quarantined and acclimated in a thermostat animal room at 18 to 28° C. in a cycle including a 12-hour light period and a 12-hour dark period for 1 week, and ten 14- to 16-week-old rats per group were tested. An aqueous 0.1 mg/mL LNDP solution or water was ingested from drinking for 7 days, and the urination amount was measured as weight with an electronic balance installed under a urine-collecting opening in raising with a metabolism cage. The weight data of the electronic balance every minute were automatically inputted into a computer. […] The total urination amount and the frequency of urination per day were found, and the urine amount per one time of urination (=the total urination amount per day/the frequency of urination per day) was calculated as to an individual of each group. […] As to the comparison of the test substance and ingestion days with respect to each measured value, two-way analysis of variance (two-way ANOVA) with replication was performed.

For “NIPPLTQTPVVVPPFLQPE [LNDP, Asn-Ile-Pro-Pro-Leu-Thr-Gln-Thr-Pro-Val-Val-Val-Pro-Pro-Phe-Leu-Gln-Pro-Glu]”, the “significant difference in change in body weight vs water ingestion group” value was “not observed” and the “significant difference in the general symptoms vs water ingestion group” value was “not observed”.
